Test results as given in patent publication US10822337B2, “TGF-β inhibitorC” (Rigel Pharmaceuticals, Inc., priority 2015, dated 2020).

Assays:
[1] = test system: GDF8 signaling (GDF pSMAD, MPC11); assay: AlphaScreen SureFire SMAD3 (p-Ser423/425) assay, inhibition of GDF8 signaling; assay type: cell-based; conditions: Mus musculus, MPC-11, p-SMAD-3 (Ser423/425) in cell lysate after GDF8 stimulation
[2] = test system: TGF-β signaling (TGF-β pSMAD, MPC-11); assay: AlphaScreen SureFire SMAD3 (p-Ser423/425) assay, inhibition of TGF-β signaling; assay type: cell-based; conditions: Mus musculus, p-SMAD-3 (Ser423/425) in cell lysate after TGF-β stimulation
Outline: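 Cells in collagen-coated plates were pretreated about 10 minutes with three-fold DMSO serial dilutions of compound, then stimulated with TGF-β. They were lysed with about 25 μL 1× Lysis Buffer. Lysates in 384-well plates were incubated protected from light with Acceptor bead mix for 2 hours and Donor bead mix for 1½ hours. p-SMAD-3 (Ser423/425) was read on Synergy-4 or Enspire using AlphaScreen pSMAD3 settings.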

| IC50 [1] [nM] | IC50 [2] [nM] | SMILES |
| --- | --- | --- |
| 1260 | 7810 | Fc1ccc(-c2nn3c(c2-c2ccc4ncccc4c2)OCC3)cc1 [Compound 69, 6-(4-Fluorophenyl)-7-(quinolin-6-yl)-2,3-dihydropyrazolo[5,1-b]oxazole] |
| 760 | 2980 | Fc1cccc(-c2nn3c(c2-c2ccc4nccn4c2)CCC3)c1 [Compound 80, 6-(2-(3-Fluorophenyl)-5,6-dihydro-4H-pyrrolo[1,2-b]pyrazol-3-yl)imidazo[1,2-a]pyridine] |
| 98.4 | 311 | Fc1ccc(-c2nn3c(c2-c2ccc4ncnn4c2)CCC3)cc1Cl [Compound 148, 6-(2-(3-Chloro-4-fluorophenyl)-5,6-dihydro-4H-pyrrolo[1,2-b]pyrazol-3-yl)-[1,2,4]triazolo[1,5-a]pyridine] |
| 610 | 4460 | COc1cccc(-c2nn3c(c2-c2ccc4ncccc4c2)CCC3)c1 [Compound 48, 6-(2-(3-Methoxyphenyl)-5,6-dihydro-4H-pyrrolo[1,2-b]pyrazol-3-yl)quinoline] |
| 924 | 2150 | Fc1ccccc1-c1nn2c(c1-c1ccc3nccn3c1)CCC2 [Compound 135, 6-(2-(2-Fluorophenyl)-5,6-dihydro-4H-pyrrolo[1,2-b]pyrazol-3-yl)imidazo[1,2-a]pyridine] |
| 65 | 369 | Cc1cccc(-c2nn3c(c2-c2ccc4nccn4c2)CCC3)c1 [Compound 18, 6-(2-(m-Tolyl)-5,6-dihydro-4H-pyrrolo[1,2-b]pyrazol-3-yl)imidazo[1,2-a]pyridine] |
| 130 | 456 | FC(F)(F)c1cccc(-c2nn3c(c2-c2ccc4nccn4c2)OCC3)c1 [Compound 61, 7-(Imidazo[1,2-a]pyridin-6-yl)-6-(3-trifluoromethylphenyl)-2,3-dihydropyrazolo[5,1-b]oxazole] |
| 43.6 | 66 | Fc1cc(F)c(-c2nn3c(c2-c2ccc4ncnn4c2)CCC3)cc1Cl [Compound 192, 6-(2-(5-Chloro-2,4-difluorophenyl)-5,6-dihydro-4H-pyrrolo[1,2-b]pyrazol-3-yl)-[1,2,4]triazolo[1,5-a]pyridine] |
| 51 | 171 | FC(F)(F)c1cccc(-c2nn3c(c2-c2ccc4[nH]ncc4c2)CCC3)c1 [Compound 31, 5-(2-(3-Trifluoromethylphenyl)-5,6-dihydro-4H-pyrrolo[1,2-b]pyrazol-3-yl)-1H-indazole] |
| 613 | 2360 | Fc1ccccc1-c1nn2c(c1-c1ccc3nccnc3c1)CCC2 [Compound 136, 6-(2-(2-Fluorophenyl)-5,6-dihydro-4H-pyrrolo[1,2-b]pyrazol-3-yl)quinoxaline] |
| 122 | 240 | Clc1cccc(-c2nn3c(c2-c2ccc4cn[nH]c4c2)CCC3)c1 [Compound 23, 6-(2-(3-Chlorophenyl)-5,6-dihydro-4H-pyrrolo[1,2-b]pyrazol-3-yl)-1H-indazole] |
| 731 | 1470 | Fc1c(Cl)cccc1-c1nn2c(c1-c1ccc3[nH]ncc3c1)CCC2 [Compound 138, 5-(2-(3-Chloro-2-fluorophenyl)-5,6-dihydro-4H-pyrrolo[1,2-b]pyrazol-3-yl)-1H-indazole] |
| 68.6 | 214 | Cn1cnc2ccc(-c3c(-c4cccc(C(F)(F)F)c4)nn4c3OCC4)cc21 [Compound 60, 7-(1-Methyl-1H-benzo[d]imidazol-6-yl)-6-(3-trifluoromethylphenyl)-1,2-dihydropyrazolo[5,1-b]oxazole] |
| 1220 | 1840 | Cc1c(F)ccc(-c2nn3c(c2-c2ccc4ncccc4c2)CCC3)c1F [Compound 171, 6-(2-(2,4-Difluoro-3-methylphenyl)-5,6-dihydro-4H-pyrrolo[1,2-b]pyrazol-3-yl)quinoline] |
| 322 | 1650 | COc1ccc(-c2nn3c(c2-c2ccc4cn[nH]c4c2)CCC3)cc1 [Compound 99, 6-(2-(4-Methoxyphenyl)-5,6-dihydro-4H-pyrrolo[1,2-b]pyrazol-3-yl)-1H-indazole] |
| 144 | 660 | Fc1ccccc1-c1nn2c(c1-c1ccc3ncnn3c1)CCC2 [Compound 137, 6-(2-(2-Fluorophenyl)-5,6-dihydro-4H-pyrrolo[1,2-b]pyrazol-3-yl)-[1,2,4]triazolo[1,5-a]pyridine] |
| 209 | 538 | Cc1c(F)ccc(-c2nn3c(c2-c2ccc4[nH]ncc4c2)CCC3)c1F [Compound 167, 5-(2-(2,4-Difluoro-3-methylphenyl)-5,6-dihydro-4H-pyrrolo[1,2-b]pyrazol-3-yl)-1H-indazole] |
| 39.8 | 159 | FC(F)(F)c1cccc(-c2nn3c(c2-c2ccc4ncnn4c2)CCC3)c1 [Compound 108, 6-(2-(3-Trifluoromethylphenyl)-5,6-dihydro-4H-pyrrolo[1,2-b]pyrazol-3-yl)-[1,2,4]triazolo[1,5-a]pyridine] |

| IC50 [1] [nM] | IC50 [2] [nM] | SMILES |
| --- | --- | --- |
| 122 | 375 | Cc1cc(-c2nn3c(c2-c2ccc4ncsc4c2)CCC3)ccc1F [Compound 17, 6-(2-(4-Fluoro-3-methylphenyl)-5,6-dihydro-4H-pyrrolo[1,2-b]pyrazol-3-yl)benzo[d]thiazole] |
| 45.1 | 292 | FC(F)(F)c1cccc(-c2nn3c(c2-c2ccc4cn[nH]c4c2)CCC3)c1 [Compound 32, 6-(2-(3-Trifluoromethylphenyl)-5,6-dihydro-4H-pyrrolo[1,2-b]pyrazol-3-yl)-1H-indazole] |
| 551 | 1780 | Fc1ccc(-c2nn3c(c2-c2ccc4nccnc4c2)CCC3)cc1OC(F)(F)F [Compound 153, 6-(2-(4-Fluoro-3-trifluoromethoxyphenyl)-5,6-dihydro-4H-pyrrolo[1,2-b]pyrazol-3-yl)quinoxaline] |
| 60.2 | 204 | Cc1cccc(-c2nn3c(c2-c2ccc4nccnc4c2)CCC3)c1 [Compound 54, 6-(2-(m-Tolyl)-5,6-dihydro-4H-pyrrolo[1,2-b]pyrazol-3-yl)quinoxaline] |
| 79.6 | 182 | Cn1cnc2ccc(-c3c(-c4ccc(F)cc4)nn4c3CCC4)cc21 [Compound 13, 6-(2-(4-Fluorophenyl)-5,6-dihydro-4H-pyrrolo[1,2-b]pyrazol-3-yl)-1-methyl-1H-benzo[d]imidazole] |
| 129 | 926 | Clc1cccc(-c2nn3c(c2-c2ccc4ncccc4c2)CCC3)c1 [Compound 49, 6-(2-(3-Chlorophenyl)-5,6-dihydro-4H-pyrrolo[1,2-b]pyrazol-3-yl)quinoline] |
| 295 | 984 | COc1ccc(-c2nn3c(c2-c2ccc4[nH]ncc4c2)CCC3)cc1 [Compound 98, 5-(2-(4-Methoxyphenyl)-5,6-dihydro-4H-pyrrolo[1,2-b]pyrazol-3-yl)-1H-indazole] |
| 331 | 2640 | Fc1ccc(-c2nn3c(c2-c2ccc4nccn4c2)OCC3)cc1 [Compound 67, 6-(4-Fluorophenyl)-7-(imidazo[1,2-a]pyridin-6-yl)-2,3-dihydropyrazolo[5,1-b]oxazole] |
| 67.5 | 77.4 | FC(F)(F)Oc1cccc(-c2nn3c(c2-c2ccc4[nH]ncc4c2)CCC3)c1 [Compound 122, 5-(2-(3-Trifluoromethoxyphenyl)-5,6-dihydro-4H-pyrrolo[1,2-b]pyrazol-3-yl)-1H-indazole] |
| 80.2 | 242 | COc1cccc(-c2nn3c(c2-c2ccc4cn[nH]c4c2)CCC3)c1 [Compound 28, 6-(2-(3-Methoxyphenyl)-5,6-dihydro-4H-pyrrolo[1,2-b]pyrazol-3-yl)-1H-indazole] |
| 228 | 1100 | Fc1ccc(-c2nn3c(c2-c2ccc4cn[nH]c4c2)CCC3)c(F)c1 [Compound 92, 6-(2-(2,4-Difluorophenyl)-5,6-dihydro-4H-pyrrolo[1,2-b]pyrazol-3-yl)-1H-indazole] |
| 340 | 949 | Clc1ccccc1-c1nn2c(c1-c1ccc3ncnn3c1)CCC2 [Compound 121, 6-(2-(2-Chlorophenyl)-5,6-dihydro-4H-pyrrolo[1,2-b]pyrazol-3-yl)-[1,2,4]triazolo[1,5-a]pyridine] |
| 106 | 251 | Cn1cnc2ccc(-c3c(-c4ccc(F)c(F)c4)nn4c3CCC4)cc21 [Compound 85, 6-(2-(3,4-Difluorophenyl)-5,6-dihydro-4H-pyrrolo[1,2-b]pyrazol-3-yl)-1-methyl-1H-benzo[d]imidazole] |
| 657 | 2450 | Cc1cccc(-c2nn3c(c2-c2ccc4[nH]ncc4c2)OCCC3)c1 [Compound 40, 3-(1H-Indazol-5-yl)-2-(m-tolyl)-6,7-dihydro-5H-pyrazolo[5,1-b][1,3]oxazine] |
| 286 | 946 | Fc1ccc(-c2nn3c(c2-c2ccc4ncsc4c2)CCC3)c(F)c1F [Compound 131, 6-(2-(2,3,4-Trifluorophenyl)-5,6-dihydro-4H-pyrrolo[1,2-b]pyrazol-3-yl)benzo[d]thiazole] |
| 38.5 | 69.6 | Cc1cc(-c2nn3c(c2-c2ccc4ncnn4c2)CCC3)c(F)cc1F [Compound 185, 6-(2-(2,4-Difluoro-5-methylphenyl)-5,6-dihydro-4H-pyrrolo[1,2-b]pyrazol-3-yl)-[1,2,4]triazolo[1,5-a]pyridine] |
| 30.9 | 141 | Fc1cc(F)c(-c2nn3c(c2-c2ccc4ncnn4c2)CCC3)cc1F [Compound 119, 6-(2-(2,4,5-Trifluorophenyl)-5,6-dihydro-4H-pyrrolo[1,2-b]pyrazol-3-yl)-[1,2,4]triazolo[1,5-a]pyridine] |
| 364 | 1010 | Fc1ccc(-c2nn3c(c2-c2ccc4ncsc4c2)CCC3)cc1F [Compound 87, 6-(2-(3,4-Difluorophenyl)-5,6-dihydro-4H-pyrrolo[1,2-b]pyrazol-3-yl)benzo[d]thiazole] |
